From patent US7414131B2, “Bicycloheteroarylamine compounds as ion channel ligands and uses thereof” (Renovis, Inc., priority 2003, dated 2008)
Counter-ions that a name gives are not always drawn.

What was measured:
hVR1 = hVR1 (Homo sapiens, UniProt Q8NER1); experiment: High throughput calcium imaging assay (Fura2, Flex Station) of VR1 antagonists; type: cell-based; settings: HEK 293 cells expressing hVR1; for % Inhibition @ 1 μM: 1 μM compound, inhibition of calcium ion influx; for IC50: concentrations 10 nM to 3.3 μM
Source text: VR1 protein is a heat-gated cation channel that exchanges about 10 calcium ions for every sodium ion resulting in neuronal membrane depolarization and elevated intracellular calcium ion levels. Therefore the functional activity of compounds at the VR1 receptor may be determined by measuring changes in intracellular calcium levels in 293 cells expressing capsaicin-insensitive VR1 receptor variants. A dual wavelength ratiometric dye, Fura2, was used as an indicator of relative levels of calcium ions in a 96 well format using a bench top scanning fluorometer with integrated fluidics and temperature control (Flex Station, Molecular Devices).
A dual wavelength ratiometric dye, Fura2, was used as an indicator of relative levels of [Ca2+] in a 96 well format using a bench top scanning fluorometer with integrated fluidics and temperature control (Flex Station, Molecular Devices).
HEK 293 cells expressing hVR1 were grown on PDL coated 96-well black-walled plates, in the presence of a DMEM medium containing 5% Penstrep, 5% Glutamax, 200 ug/mL Hygromycin, 5 μg/mL Blasticide and 10% heat inactivated FBS. Prior to assay, the cells were loaded with 5 μg/mL Fura2 in normal saline solution at 37° C. for 40 minutes. Cells were then washed with normal saline to remove the dye.
The assay consists of two stages; a pre-treatment phase followed by a treatment phase. In the pretreatment phase, 50 μl of a compound solution was added to the cells. Immediately following, 50 μl of the test compound in the presence of agonist (a saline solution plus 10 mM citric acid bufferd to pH 5.7 with HCl) was added. Fura2 was excited at […] to indicate relative calcium concentration. Changes in wavelength measurements were made throughout the course of the experiment in 4 second intervals over a period of 3 minutes. The fluorescence ratio from the excitations at […] was recorded for analysis. Responses were measured as peak fluorescence ratio after compound-agonist addition minus baseline fluorescence ratio prior to treatment and were calculated for each concentration tested using the SoftMaxPro software. Data was expressed as percentage inhibition calculated as follows: […]
A dose response curve was then determined, from which the IC50 of each compound was calculated.

[1] = Pharmacokinetic profile after intravenous and oral administration in rats; type: in vivo, rat; settings: IV 1 mg/kg, oral 5 mg/kg; for bioavailability / Vd / Cmax / Tmax: male, Sprague-Dawley; for bioavailability / Vd: plasma; for bioavailability / Vd / Cls (L/hrKg) / T/2: rat; for Vd / Cmax / Tmax / Cls (L/hrKg) / T/2: route of this column not given; for Cmax / Tmax: rat plasma
Experimental: The pharmacokinetic profile of Compound 1 was evaluated following intravenous and oral administration in rats. Sprague-Dawley male rats obtained from Charles River, San Diego, Calif. were acclimated for 24 hours.
Compounds of this invention were formulated at a concentration of 0.5 mg/mL for IV administration at a 1 mg/kg dose and 1 mg/mL for oral administration at a 5 mg/kg dose. All animals were weighed before dosing. The body weight was used to calculate the actual dose for each animal. The intravenous dose was administered through the jugular vein catheter in less than 1 minute. The oral dose volume was 1.5 mL for all PO rats administered through oral lavage.
For IV dosing, blood samples were collected using a pre-heparinized syringe via the caproic artery catheter before dosing and at t=2, 5, 15, 30, 60, 120, 180, 360, and 480 minutes post dosing. For PO dosing, blood samples were collected using a pre-heparinized syringe via the caproic artery catheter before dosing and at t=5, 15, 30, 60, 120, 180, 360, and 480 minutes post dosing. 250 uL of blood was obtained at each time point from each animal. Equal volumes of 0.9% normal saline were replaced to prevent dehydration. The whole blood samples were maintained on ice until centrifugation. Blood samples were centrifuged at 14,000 rpm for 10 minutes at 4° C., and the upper plasma layer was transferred into a clean vial and store at −80° C.

Sprague-Dawley male rats = experiment: Carrageenan-induced thermal hyperalgesia, latency of paw withdrawal; type: in vivo; settings: rat, carrageenan hindpaw; 30 mg/kg dosed one hour after carrageenan; tested two hours later
Experimental: Sprague-Dawley male rats obtained from Charles River, San Diego, Calif. were purchased at 150-175 g, and held for at least one week before testing. Pain was induced by injecting 100 μl of 2% carrageenan in 0.9% saline sub-Q into the right ventral hindpaw while the animals were under isofluorane anesthesia. Animals were then dosed one hour after with a concentration of 30 mg/kg of Compound 1. Two hours later, after acclimatizing in testing chambers for 20-30 minutes, animals were tested on both hindpaws for latency of paw withdrawal using a thermal testing apparatus. 2-3 trials were conducted with 10 minutes between trials. […] The figure depicts the time in seconds until animals withdraw from thermal stimulation at baseline and two hours after administration of delivery vehicle, control compound, and the dose of 30 mg/kg of Compound 1.

hVR1, sequence (Q8NER1 whole entry): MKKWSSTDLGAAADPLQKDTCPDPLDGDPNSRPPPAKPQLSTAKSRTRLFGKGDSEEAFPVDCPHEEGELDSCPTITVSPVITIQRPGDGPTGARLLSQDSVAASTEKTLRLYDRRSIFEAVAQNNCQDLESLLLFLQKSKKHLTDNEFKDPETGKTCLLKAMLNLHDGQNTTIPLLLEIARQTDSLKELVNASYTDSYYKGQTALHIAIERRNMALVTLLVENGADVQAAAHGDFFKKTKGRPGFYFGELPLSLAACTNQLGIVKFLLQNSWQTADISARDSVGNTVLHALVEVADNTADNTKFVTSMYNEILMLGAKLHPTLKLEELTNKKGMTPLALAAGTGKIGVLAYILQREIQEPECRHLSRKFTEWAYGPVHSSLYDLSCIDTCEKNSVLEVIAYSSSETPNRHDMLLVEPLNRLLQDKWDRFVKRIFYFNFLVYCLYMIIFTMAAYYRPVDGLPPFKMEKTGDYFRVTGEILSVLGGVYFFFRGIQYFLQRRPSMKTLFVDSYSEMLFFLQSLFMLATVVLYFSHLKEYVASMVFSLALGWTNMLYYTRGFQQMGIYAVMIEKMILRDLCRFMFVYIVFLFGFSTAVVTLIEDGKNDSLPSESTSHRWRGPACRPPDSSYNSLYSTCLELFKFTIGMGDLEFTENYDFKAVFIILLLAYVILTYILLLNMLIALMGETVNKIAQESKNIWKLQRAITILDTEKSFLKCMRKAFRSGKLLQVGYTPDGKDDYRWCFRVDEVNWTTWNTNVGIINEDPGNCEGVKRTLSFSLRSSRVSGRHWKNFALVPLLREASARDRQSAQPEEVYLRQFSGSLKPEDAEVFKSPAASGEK

SMILES	% Inhibition @ 1 μM (hVR1)	further results
c1ccc(CN2CCc3c(ncnc3Nc3ccc4c(c3)OCCO4)C2)cc1 [Example 30, (7-Benzyl-5,6,7,8-tetrahydro-pyrido[3,4-d]pyrimidin-4-yl)-(2,3-dihydro-benzo[1,4]dioxin-6-yl)-amine]	IA (IA inactive.)	–
Cc1ccccc1N1CCc2c(ncnc2Nc2ccc(C(F)(F)F)cc2)C1 [Example 45, N-(4-(Trifluoromethyl)phenyl)-5,6,7,8-tetrahydro-7-o-tolylpyrido[3,4-d]pyrimidin-4-amine]	IA (IA inactive.)	–
c1ccc(CN2CCc3c(ncnc3Nc3cnc4ccccc4c3)C2)cc1 [Example 38, 7-Benzyl-5,6,7,8-tetrahydro-N-(quinolin-3-yl)pyrido[3,4-d]pyrimidin-4-amine]	IA (IA inactive.)	–
FC(F)(F)c1cccc(Nc2ncnc3c2CCN(c2ncccc2Cl)C3)c1 [Example 43, 7-(3-Chloropyridin-2-yl)-N-(3-(trifluoromethyl)phenyl)-5,6,7,8-tetrahydropyrido[3,4-d]pyrimidin-4-amine]	IA (IA inactive.)	–
FC(F)(F)c1ccc(Nc2ncnc3c2CCN(c2ncccc2C(F)(F)F)C3)cc1 [Example 12, (4-Trifluoromethyl-phenyl)-[7-(3-trifluoromethyl-pyridin-2-yl)-5,6,7,8-tetrahydro-pyrido[3,4-d]pyrimidin-4-yl]-amine]	–	IC50 (hVR1): > 1 µM
O=S(=O)(c1ccc(Nc2ncnc3c2CCN(c2ncccc2Cl)C3)cc1)C(F)(F)F [Example 22, 7-(3-Chloropyridin-2-yl)-5,6,7,8-tetrahydro-N-(4-(trifluoromethylsulfonyl)phenyl)pyrido[3,4-d]pyrimidin-4-amine]	IA (IA inactive.)	–
CC(C)S(=O)(=O)c1cccnc1N1CCc2c(ncnc2Nc2ccc(C(F)(F)F)cc2)C1 [Example 16, N-(4-(Trifluoromethyl)phenyl)-5,6,7,8-tetrahydro-7-(3-(isopropylsulfonyl)pyridin-2-yl)pyrido[3,4-d]pyrimidin-4-amine]	IA (IA inactive.)	–
Fc1ccc(Nc2ncnc3c2CCN(c2ncccc2Cl)C3)cc1 [Example 19, 7-(3-Chloropyridin-2-yl)-N-(4-fluorophenyl)-5,6,7,8-tetrahydropyrido[3,4-d]pyrimidin-4-amine]	+++ (“+++” compound exhibited 51-75% inhibition of calcium ion influx induced by capsaicin stimulation.)	bioavailability [1]: 5.66%; Vd [1]: 12.2 L/kg; Cmax [1]: 24.5 ng/mL; Tmax [1]: 40.8 min; Cls (L/hrKg) [1]: 4.47 L/hrKg; T/2 [1]: 1.9 h
Cc1cccc(N2CCc3c(ncnc3Nc3ccc4c(c3)OCCO4)C2)c1 [Example 36, 5,6,7,8-Tetrahydro-N-(2,3-dihydrobenzo[b][1,4]dioxin-6-yl)-7-m-tolylpyrido[3,4-d]pyrimidin-4-amine]	–	IC50 (hVR1): 0.501 to 1 µM
FC(F)(F)c1ccc(Nc2ncnc3c2CCN(c2ncccc2Cl)C3)cc1 [Example 1, 7-(3-Chloropyridin-2-yl)-N-(4-(trifluoromethyl)phenyl)-5,6,7,8-tetrahydropyrido[3,4-d]pyrimidin-4-amine]	–	latency of paw withdrawal (reversal of thermal hyperalgesia) (Sprague-Dawley male rats): significantly increased latency of paw withdrawal
CS(=O)(=O)c1cccnc1N1CCc2c(ncnc2Nc2ccc(S(=O)(=O)C(F)(F)F)cc2)C1 [Example 23, 5,6,7,8-tetrahydro-7-(3-(methylsulfonyl)pyridin-2-yl)-N-(4-(trifluoromethylsulfonyl)phenyl)pyrido[3,4-d]pyrimidin-4-amine]	+ (“+” compound exhibited 0-25% inhibition of calcium ion influx induced by capsaicin stimulation.)	–
Clc1cccnc1N1CCc2c(ncnc2Nc2ccccc2)C1 [Example 18, 7-(3-Chloropyridin-2-yl)-5,6,7,8-tetrahydro-N-phenylpyrido[3,4-d]pyrimidin-4-amine]	++ (“++” compound exhibited 26-50% inhibition of calcium ion influx induced by capsaicin stimulation.)	bioavailability [1]: 4.07%; Vd [1]: 18 L/kg; Cmax [1]: 44.6 ng/mL; Tmax [1]: 55.2 min; Cls (L/hrKg) [1]: 4.45 L/hrKg; T/2 [1]: 2.55 h

Second part, led by results:

% Inhibition @ 1 μM (hVR1)	SMILES	further results
IA (IA inactive.)	CS(=O)(=O)c1nc2c(c(Nc3ccc(C(F)(F)F)cc3)n1)CCN(c1ncccc1Cl)C2 [Example 25, [7-(3-Chloro-pyridin-2-yl)-2-methanesulfonyl-5,6,7,8-tetrahydro-pyrido[3,4-d]pyrimidin-4-yl]-(4-trifluoromethyl-phenyl)-amine]	–
IA (IA inactive.)	FC(F)(F)c1ccc(Nc2ncnc3c2CCN(c2ccccc2)C3)cc1 [Example 44, N-(4-(Trifluoromethyl)phenyl)-5,6,7,8-tetrahydro-7-phenylpyrido[3,4-d]pyrimidin-4-amine]	–
IA (IA inactive.)	COCc1nc2c(c(Nc3ccc(C(F)(F)F)cc3)n1)CCN(Cc1ccccc1)C2 [Example 31, 7-Benzyl-N-(4-(trifluoromethyl)phenyl)-5,6,7,8-tetrahydro-2-(methoxymethyl)pyrido[3,4-d]pyrimidin-4-amine]	–
IA (IA inactive.)	CN(C)CCNc1nc2c(c(Nc3ccc(C(F)(F)F)cc3)n1)CCN(c1ncccc1Cl)C2 [Example 32, 7-(3-Chloropyridin-2-yl)-N^2-(2-(dimethylamino)ethyl)-N^4-(4-(trifluoromethyl)phenyl)-5,6,7,8-tetrahydropyrido[3,4-d]pyrimidine-2,4-diamine]	–
IA (IA inactive.)	FC(F)Oc1ccc(Nc2ncnc3c2CCN(c2ncccc2Cl)C3)cc1 [Example 15, 7-(3-Chloropyridin-2-yl)-N-(4-(difluoromethoxy)phenyl)-5,6,7,8-tetrahydropyrido[3,4-d]pyrimidin-4-amine]	IC50 (hVR1): > 1 µM
IA (IA inactive.)	FC(F)(F)CCN1CCc2c(ncnc2Nc2ccc3c(c2)OCCO3)C1 [Example 7, (2,3-Dihydro-benzo[1,4]dioxin-6-yl)-[7-(3,3,3-trifluoro-propyl)-5,6,7,8-tetrahydro-pyrido[3,4-d]pyrimidin-4-yl]-amine hydrochloride]	–
IA (IA inactive.)	CC(C)(C)c1ccc(Nc2ncnc3c2CCN(Cc2ccccc2)C3)cc1 [Example 2, N-(4-tert-Butylphenyl)-7-benzyl-5,6,7,8-tetrahydropyrido[3,4-d]pyrimidin-4-amine]	–
IA (IA inactive.)	Cc1ccc(N2CCc3c(ncnc3Nc3ccc(C(F)(F)F)cc3)C2)cc1 [Example 47, N-(4-(Trifluoromethyl)phenyl)-5,6,7,8-tetrahydro-7-p-tolylpyrido[3,4-d]pyrimidin-4-amine]	–
